In patent US4520026A, “Indolizine derivatives and use as cardiovascular agents” (S. A. Labaz N.V., priority 1982, dated 1985):

Legend:
[1] = test system: blood-flow to the myocardium; assay: Effect on blood-flow to the myocardium, anaesthetized dogs, intravenous; assay type: in vivo, dog; details: anaesthetized dog
Method: It was undertaken on anaesthetized dogs which received the substance under study by intravenous route. The intensity of the maximum effect on blood-flow to the myocardium was expressed in percentage of the corresponding value before injection. The time required for the maximum effect to decrease by 50% represented the duration of the effect. This time was measured in minutes.

[2] = test system: epinephrine-accelerated heart rate (anti-β effect); assay: Antiadrenergic effect: anti-β effect (reduction of epinephrine-accelerated heart rate); assay type: in vivo; details: dog
Method: (§1) The purpose of this test was to determine the capacity of the compounds under study to reduce epinephrine-increased blood-pressure (anti-α effect) and epinephrine-accelerated heart rate (anti-β effect) in the dog previously anaesthetized with pentobarbital and atropinized.
(§2) For each dog, the dose of epinephrine was first determined which provoked a reproductible increase by about 100 mm. Hg in the arterial pressure (between 5 and 10 μg/kg). After that, the dose of epinephrine so determined was administered followed by a dose by intravenous route of the compound to be studied. The percentage of reduction of the hypertension provoked by the compound under study in comparison with the hypertension previously obtained (about 100 mm. Hg) was then registered.
(§3) The percentage of reduction of the epinephrine-induced acceleration of heart-rate produced by the compound under study in comparison with the tachycardia previously measured (about 70 beats) was then registered. In both cases, the results were expressed as follows: […]
(§4) + for a <50%-reduction of the increase in pressure or cardiac frequency
(§5) ++ for a ≥50%-reduction of the increase in pressure or cardiac frequency
(§6) +++ for a subtotal reduction of the increase in pressure or cardiac frequency

[3] = test system: epinephrine-increased blood-pressure (anti-α effect); assay: Antiadrenergic effect: anti-α effect (reduction of epinephrine-increased blood-pressure); assay type: in vivo; details: dog
Method: as §1, §2, §3, §4, §5, §6

[4] = Canis lupus familiaris, iv, dose 10 mg/kg i.v., read-out: Max. increase (blood-flow to the myocardium)
[5] = Canis lupus familiaris, iv, dose 10 mg/kg i.v.
[6] = Canis lupus familiaris, iv, dose 5 mg/kg i.v., read-out: Max. increase (blood-flow to the myocardium)
[7] = Canis lupus familiaris, iv, dose 8 mg/kg i.v., read-out: Max. increase (blood-flow to the myocardium)
[8] = Canis lupus familiaris, iv, dose 7 mg/kg i.v.

Structure (SMILES): CCCCN(CCCC)CCCOc1ccc(C(=O)c2c(-c3ccccc3)c(Br)c3ccccn23)cc1Cl [Br/Cl/H/drawing 17/n-C4H9/3]
- change in vivo at 10 mg/kg [1, 4]: 90%
- Time required to decrease to 50% (duration of effect) ([1]; dose 10 mg/kg i.v.): 90 min

Structure (SMILES): CCCN(CCC)CCCOc1ccc(C(=O)c2c(-c3ccc(Br)cc3)c(Br)c3ccccn23)cc1Cl [Br/Cl/H/drawing 18/n-C3H7/3]
- change in vivo at 10 mg/kg [1, 4]: 50%
- Time required to decrease to 50% (duration of effect) ([1]; dose 10 mg/kg i.v.): 50 min

Structure (SMILES): CCCCN(CCCC)CCCOc1ccc(C(=O)c2c(CC)cc3ccccn23)cc1Cl [H/Cl/H/C2H5/n-C4H9/3, 2-Ethyl-3-[4-(3-di-n-butylaminopropyl)-oxy-3-chloro-benzoyl]-indolizine]
- inhibition in vivo at 6 mg/kg ([2]; Canis lupus familiaris, iv, dose 6 mg/kg i.v.): > 50%
- change in vivo at 6 mg/kg ([1]; Canis lupus familiaris, iv, dose 6 mg/kg i.v., read-out: Max. increase (blood-flow to the myocardium)): 70%
- Time required to decrease to 50% (duration of effect) ([1]; dose 6 mg/kg i.v.): 45 min
- Anti-α effect ([3]; dose 6 mg/kg i.v.): +++

Structure (SMILES): CCCCc1c(Br)c2ccccn2c1C(=O)c1ccc(OCCCN(CCC)CCC)c(Cl)c1 [Br/Cl/H/n-C4H9/n-C3H7/3, 1-Bromo-2-n-butyl-3-[4-(3-di-n-propylaminopropyl)-oxy-3-chloro-benzoyl]-indolizine]
- inhibition in vivo at 10 mg/kg [2, 5]: < 50%
- change in vivo at 10 mg/kg [1, 4]: 40%
- Time required to decrease to 50% (duration of effect) ([1]; dose 10 mg/kg i.v.): 90 min
- inhibition in vivo at 10 mg/kg [3, 5]: > 50%

Structure (SMILES): CCCCN(CCCC)CCCOc1ccc(C(=O)c2c(CC)c(Br)c3ccccn23)cc1Br [Br/Br/H/C2H5/n-C4H9/3, 1-Bromo-2-ethyl-3-[4-(3-di-n-butylaminopropyl)-oxy-3-bromo-benzoyl]-indolizine]
- Anti-β effect ([2]; dose 10 mg/kg i.v.): +++
- change in vivo at 10 mg/kg [1, 4]: 60%
- Time required to decrease to 50% (duration of effect) ([1]; dose 10 mg/kg i.v.): 90 min
- Anti-α effect ([3]; dose 10 mg/kg i.v.): +++

Structure (SMILES): CCCCN(CCCC)CCCOc1ccc(C(=O)c2c(C(C)C)c(Br)c3ccccn23)cc1Cl [Br/Cl/H/iso-C3H7/n-C4H9/3, 1-Bromo-2-isopropyl-3-[4-(3-di-n-butylaminopropyl)-oxy-3-chloro-benzoyl]-indolizine]
- change in vivo at 5 mg/kg [1, 6]: 133%
- Time required to decrease to 50% (duration of effect) ([1]; dose 5 mg/kg i.v.): 20 min

Structure (SMILES): CCCN(CCC)CCCOc1ccc(C(=O)c2c(-c3ccccc3)c(Br)c3ccccn23)cc1Br [Br/Br/H/drawing 11/n-C3H7/3, 1-Bromo-2-phenyl-3-[4-(3-di-n-propylaminopropyl)-oxy-3-bromo-benzoyl]-indolizine]
- change in vivo at 10 mg/kg [1, 4]: 100%
- Time required to decrease to 50% (duration of effect) ([1]; dose 10 mg/kg i.v.): 20 min

Structure (SMILES): CCCCN(CCCC)CCCOc1c(Cl)cc(C(=O)c2c(-c3ccc(Br)cc3)cc3ccccn23)cc1Cl [H/Cl/Cl/drawing 14/n-C4H9/3]
- change in vivo at 10 mg/kg [1, 4]: 45%
- Time required to decrease to 50% (duration of effect) ([1]; dose 10 mg/kg i.v.): 15 min

Structure (SMILES): CCCCc1cc2ccccn2c1C(=O)c1ccc(OCCCN(CCCC)CCCC)c(Cl)c1 [H/Cl/H/n-C4H9/n-C4H9/3, 2-n-Butyl-3-[4-(3-di-n-butylaminopropyl)-oxy-3-chloro-benzoyl]-indolizine]
- inhibition in vivo at 10 mg/kg [2, 5]: > 50%
- change in vivo at 5 mg/kg [1, 6]: 75%
- Time required to decrease to 50% (duration of effect) ([1]; dose 5 mg/kg i.v.): 30 min
- Anti-α effect ([3]; dose 10 mg/kg i.v.): +++

Structure (SMILES): CCCCN(CCCC)CCCOc1ccc(C(=O)c2c(-c3cccc(Br)c3)c(Br)c3ccccn23)cc1Br [Br/Br/H/drawing 12/n-C4H9/3]
- change in vivo at 10 mg/kg [1, 4]: 150%
- Time required to decrease to 50% (duration of effect) ([1]; dose 10 mg/kg i.v.): 100 min

Structure (SMILES): CCCN(CCC)CCCOc1ccc(C(=O)c2c(CC)c(Cl)c3ccccn23)cc1Cl [Cl/Cl/H/C2H5/n-C3H7/3, 1-Chloro-2-ethyl-3-[4-(3-di-n-propylaminopropyl)-oxy-3-chloro-benzoyl]-indolizine]
- Anti-β effect ([2]; dose 3.3 mg/kg i.v.): +++
- change in vivo at 3.3 mg/kg ([1]; Canis lupus familiaris, iv, dose 3.3 mg/kg i.v., read-out: Max. increase (blood-flow to the myocardium)): 60%
- Time required to decrease to 50% (duration of effect) ([1]; dose 3.3 mg/kg i.v.): 25 min
- Anti-α effect ([3]; dose 3.3 mg/kg i.v.): +++

Structure (SMILES): CCCN(CCC)CCCOc1ccc(C(=O)c2c(-c3ccc(Cl)cc3)c(Br)c3ccccn23)cc1Cl [Br/Cl/H/drawing 19/n-C3H7/3]
- change in vivo at 10 mg/kg [1, 4]: 63%
- Time required to decrease to 50% (duration of effect) ([1]; dose 10 mg/kg i.v.): 45 min

Structure (SMILES): CCCN(CCC)CCCOc1ccc(C(=O)c2c(-c3cccc(Br)c3)cc3ccccn23)cc1Cl [H/Cl/H/drawing 16/n-C3H7/3]
- change in vivo at 8 mg/kg [1, 7]: 45%
- Time required to decrease to 50% (duration of effect) ([1]; dose 8 mg/kg i.v.): 25 min

Structure (SMILES): CCCCc1c(Br)c2ccccn2c1C(=O)c1ccc(OCCCN(CCC)CCC)c(Br)c1 [Br/Br/H/n-C4H9/n-C3H7/3, 1-Bromo-2-n-butyl-3-[4-(3-di-n-propylaminopropyl)-oxy-3-bromo-benzoyl]-indolizine]
- change in vivo at 10 mg/kg [1, 4]: 100%
- Time required to decrease to 50% (duration of effect) ([1]; dose 10 mg/kg i.v.): 20 min

Structure (SMILES): CCCN(CCC)CCCOc1ccc(C(=O)c2c(C(C)C)cc3ccccn23)cc1Cl [H/Cl/H/iso-C3H7/n-C3H7/3, 2-Isopropyl-3-[4-(3-di-n-propylaminopropyl)-oxy-3-chloro-benzoyl]-indolizine]
- inhibition in vivo at 10 mg/kg [2, 5]: > 50%
- change in vivo at 5 mg/kg [1, 6]: 80%
- Time required to decrease to 50% (duration of effect) ([1]; dose 5 mg/kg i.v.): 90 min
- inhibition in vivo at 10 mg/kg [3, 5]: > 50%

Structure (SMILES): CCCCN(CCCC)CCCOc1ccc(C(=O)c2c(-c3ccc(Br)cc3)cc3ccccn23)cc1Cl [H/Cl/H/drawing 20/n-C4H9/3]
- change in vivo at 10 mg/kg [1, 4]: 60%
- Time required to decrease to 50% (duration of effect) ([1]; dose 10 mg/kg i.v.): 25 min

Structure (SMILES): CCCCN(CCCC)CCCOc1ccc(C(=O)c2c(-c3cccc(Br)c3)cc3ccccn23)cc1Cl [H/Cl/H/drawing 15/n-C4H9/3]
- change in vivo at 10 mg/kg [1, 4]: 30%
- Time required to decrease to 50% (duration of effect) ([1]; dose 10 mg/kg i.v.): 45 min

Structure (SMILES): CCCc1c(Br)c2ccccn2c1C(=O)c1ccc(OCCCN(CCC)CCC)c(Br)c1 [Br/Br/H/n-C3H7/n-C3H7/3, 1-Bromo-2-n-propyl-3-[4-(3-di-n-propylaminopropyl)-oxy-3-bromo-benzoyl]-indolizine]
- change in vivo at 10 mg/kg [1, 4]: 90%
- Time required to decrease to 50% (duration of effect) ([1]; dose 10 mg/kg i.v.): 20 min

Structure (SMILES): CCCN(CCC)CCCOc1ccc(C(=O)c2c(-c3cccc(Br)c3)c(Cl)c3ccccn23)cc1Cl [Cl/Cl/H/drawing 21/n-C3H7/3, 1-Chloro-2-(3-bromo-phenyl)-3-[4-(3-di-n-propylaminopropyl)-oxy-3-chloro-benzoyl]-indolizine]
- change in vivo at 8 mg/kg [1, 7]: 70%
- Time required to decrease to 50% (duration of effect) ([1]; dose 8 mg/kg i.v.): 90 min

Structure (SMILES): CCCCN(CCCC)CCCOc1ccc(C(=O)c2c(-c3ccc(Br)cc3)cc3ccccn23)cc1Br [H/Br/H/drawing 13/n-C4H9/3]
- change in vivo at 10 mg/kg [1, 4]: 90%
- Time required to decrease to 50% (duration of effect) ([1]; dose 10 mg/kg i.v.): 25 min

Structure (SMILES): CCCN(CCC)CCCOc1ccc(C(=O)c2c(-c3ccc(Cl)cc3)c(Cl)c3ccccn23)cc1 [Cl/H/H/drawing 22/n-C3H7/3]
- change in vivo at 5 mg/kg [1, 6]: 50%
- Time required to decrease to 50% (duration of effect) ([1]; dose 5 mg/kg i.v.): 40 min

Structure (SMILES): CCCN(CCC)CCCOc1ccc(C(=O)c2c(C(C)C)cc3ccccn23)cc1Br [H/Br/H/iso-C3H7/n-C3H7/3, 2-Isopropyl-3-[4-(3-di-n-propylaminopropyl)-oxy-3-bromo-benzoyl]-indolizine]
- inhibition in vivo at 7.5 mg/kg ([2]; Canis lupus familiaris, iv, dose 7.5 mg/kg i.v.): > 50%
- Anti-α effect ([3]; dose 7.5 mg/kg i.v.): +++

Structure (SMILES): CCCCN(CCCC)CCCOc1ccc(C(=O)c2c(C)c(Br)c3ccccn23)cc1OC [Br/OCH3/H/CH3/n-C4H9/3, 1-Bromo-2-methyl-3-[4-(3-di-n-butylaminopropyl)-oxy-3-methoxy-benzoyl]-indolizine]
- inhibition in vivo at 7 mg/kg [2, 8]: > 50%
- inhibition in vivo at 7 mg/kg [3, 8]: > 50%

Structure (SMILES): CCCCN(CCCC)CCCOc1ccc(C(=O)c2c(CCC)cc3ccccn23)cc1Br [H/Br/H/n-C3H7/n-C4H9/3, 2-n-Propyl-3-[4-(3-di-n-butylaminopropyl)-oxy-3-bromo-benzoyl]-indolizine]
- change in vivo at 2 mg/kg ([1]; Canis lupus familiaris, iv, dose 2 mg/kg i.v., read-out: Max. increase (blood-flow to the myocardium)): 120%
- Time required to decrease to 50% (duration of effect) ([1]; dose 2 mg/kg i.v.): 25 min
